Data: ChEMBL document CHEMBL3885861, “Open TG-GATES”

Species: Rattus norvegicus
Assay: Open TG-GATES - Regimen: Single
Assay type: toxicity, organism-based, Sprague-Dawley
Set-up: regimen Single, gender Male, age 6 weeks
Conditions: in vivo, po, 60 mg/kg, route gavage, dose level Middle; for APTT / Bas / Eos / Fbg / Hb / Ht / Lym / MCH / MCHC / MCV / Mono / Neu / PT / Plat / RBC / Ret / WBC: tissue Blood; for KIDNEY_L / KIDNEY_R / KIDNEY_TOTAL: tissue Kidney; for LIVER: tissue Liver; for A/G / ALP / ALT / AST / BUN / CRE / Ca / Cl / DBIL / GLC / IP / K / LDH / Na / PL / RALB / TBIL / TC / TG / TP / gamma-GTP: tissue Plasma

Cn1c(=O)c2[nH]cnc2n(C)c1=O.O [THEOPHYLLINE]
TERMINAL_BW (9 h): 211.1 g | APTT (9 h): 22.3 s | Bas (9 h): 0% | Eos (9 h): 0.8% | Fbg (9 h): 349.8 mg/dL | Hb (9 h): 12.9 g/dL | Ht (9 h): 38.8% | Lym (9 h): 73.2% | MCH (9 h): 20.6 pg | MCHC (9 h): 33.4% | MCV (9 h): 61.8 fL | Mono (9 h): 2% | Neu (9 h): 22% | PT (9 h): 15.8 s | Plat (9 h): 120.3 x10_4/uL | RBC (9 h): 630.2 x10_4/ul | Ret (9 h): 7.2% | WBC (9 h): 77.3 x10_2/uL | KIDNEY_L (9 h): 1 g | KIDNEY_R (9 h): 1 g | KIDNEY_TOTAL (9 h): 2 g | LIVER (9 h): 8.6 g | A/G (9 h): 1.2 | ALP (9 h): 1618.2 IU/L | ALT (9 h): 43.8 IU/L | AST (9 h): 87.2 IU/L | BUN (9 h): 9.8 mg/dL | CRE (9 h): 0.2 mg/dL | Ca (9 h): 10.7 mg/dL | Cl (9 h): 107.2 meq/L | DBIL (9 h): 0 mg/dL | GLC (9 h): 165.2 mg/dL | IP (9 h): 8.3 mg/dL | K (9 h): 3.7 meq/L | LDH (9 h): 168.2 IU/L | Na (9 h): 140.2 meq/L | PL (9 h): 121.6 mg/dL | RALB (9 h): 3.2 g/dL | TBIL (9 h): 0.022 mg/dL | TC (9 h): 73.8 mg/dL | TG (9 h): 23.8 mg/dL | TP (9 h): 5.9 g/dL | gamma-GTP (9 h): 1.2 IU/L | TERMINAL_BW (24 h): 225.6 g | APTT (24 h): 22.2 s | Bas (24 h): 0% | Eos (24 h): 0.8% | Fbg (24 h): 293 mg/dL | Hb (24 h): 13.9 g/dL | Ht (24 h): 41.4% | Lym (24 h): 76.2% | MCH (24 h): 20.6 pg | MCHC (24 h): 33.6% | MCV (24 h): 61.2 fL | Mono (24 h): 3% | Neu (24 h): 18.6% | PT (24 h): 16 s | Plat (24 h): 115 x10_4/uL | RBC (24 h): 676.8 x10_4/ul | Ret (24 h): 6.5% | WBC (24 h): 97.8 x10_2/uL | KIDNEY_L (24 h): 1 g | KIDNEY_R (24 h): 1 g | KIDNEY_TOTAL (24 h): 2 g | LIVER (24 h): 10.1 g | A/G (24 h): 1.2 | ALP (24 h): 1662.4 IU/L | ALT (24 h): 42.8 IU/L | AST (24 h): 73.4 IU/L | BUN (24 h): 15.6 mg/dL | CRE (24 h): 0.2 mg/dL | Ca (24 h): 10.9 mg/dL | Cl (24 h): 106 meq/L | DBIL (24 h): 0.006 mg/dL | GLC (24 h): 191.2 mg/dL | IP (24 h): 8.8 mg/dL | K (24 h): 4.1 meq/L | LDH (24 h): 168.4 IU/L | Na (24 h): 142.2 meq/L | PL (24 h): 135.4 mg/dL | RALB (24 h): 3 g/dL | TBIL (24 h): 0.006 mg/dL | TC (24 h): 78.2 mg/dL | TG (24 h): 60.6 mg/dL | TP (24 h): 5.5 g/dL | gamma-GTP (24 h): 1.4 IU/L
